Measured values published in patent publication US7074789B2, “Kinase inhibitors” (Amgen Inc., priority 1999, dated 2006).

What was measured:
Assay type in all cases: biochemical
[1] = target: T1, Lck (Homo sapiens, UniProt P06239); test: Kinase inhibition assay (33P transfer), Lck; settings: Table 3; read-out: Lck-1
T1 construct: Kinases are expressed as either kinase domains or full length constructs; made in house
How it was run: (§1)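 Steps: express kinase as GST or polyHistidine fusion in E. coli or High Five cells; optionally co-express or mix with regulatory polypeptides; incubate with 33P-ATP and plate-attached poly(Glu,Tyr) 4:1 or poly(Arg,Ser) 3:1; wash with 0.5% phosphoric acid; count by liquid scintillation.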

[2] = target: T2, Lyn (Homo sapiens, UniProt P07948); test: Kinase inhibition assay (33P transfer), Lyn; settings: Table 6, Lyn-1 kinase inhibition class
T2 construct: Kinases are expressed as either kinase domains or full length constructs; made in house
How it was run: (§2)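 Each enzyme, purified to near homogeneity by affinity chromatography, was incubated with ATP carrying 33P and a substrate polymer fixed to the plate. Unbound label was removed with dilute phosphoric acid (0.5%) before adding scintillant and counting. Potency is given as the compound level cutting label uptake by 50%.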

[3] = target: T3, Fyn (Homo sapiens, UniProt P06241); test: Kinase inhibition assay (33P transfer), Fyn; settings: read-out: Fyn-1
T3 construct: Kinases are expressed as either kinase domains or full length constructs; made in house
How it was run: as §2

[4] = target: T4, EGFR (Homo sapiens, UniProt P00533); test: Kinase inhibition assay (33P transfer), EGFR; settings: Table 2, kinase inhibition class; read-out: EGFR-1
T4 construct: Kinases are expressed as either kinase domains or full length constructs; made in house
How it was run: as §2

[5] = target: T5, Flt-1 (Homo sapiens, UniProt P17948); test: Kinase inhibition assay (33P transfer), Flt-1
T5 construct: Kinases are expressed as either kinase domains or full length constructs; made in house
How it was run: as §2

[6] = target: T6, Tek (Homo sapiens, UniProt Q02763); test: Kinase inhibition assay (33P transfer), Tek; settings: read-out: Tek-1
T6 construct: Kinases are expressed as either kinase domains or full length constructs; made in house
How it was run: as §2

[7] = target: T7, c-Met (Homo sapiens, UniProt P08581); test: Kinase inhibition assay (33P transfer), c-Met; settings: Table 2, kinase inhibition class; read-out: Met-1
T7 construct: Kinases are expressed as either kinase domains or full length constructs; made in house
How it was run: as §2

[8] = target: T8, AKT (Homo sapiens, UniProt Q9Y243); test: Kinase inhibition assay (33P transfer), AKT; settings: Table 2, kinase inhibition class; read-out: AKT3-1
T8 construct: Kinases are expressed as either kinase domains or full length constructs; made in house
How it was run: as §1

[9] = target: T9, IGFR-1 (Homo sapiens, UniProt P08069); test: Kinase inhibition assay (33P transfer), IGFR-1; settings: Table 2, kinase inhibition class
T9 construct: Kinases are expressed as either kinase domains or full length constructs; made in house

[10] = target: T10, EPHB4 (Homo sapiens, UniProt P54760); test: Kinase inhibition assay (33P transfer), EPHB4; settings: read-out: EPHB4-1
T10 construct: Kinases are expressed as either kinase domains or full length constructs; made in house
T10 sequence (P54760 16-987): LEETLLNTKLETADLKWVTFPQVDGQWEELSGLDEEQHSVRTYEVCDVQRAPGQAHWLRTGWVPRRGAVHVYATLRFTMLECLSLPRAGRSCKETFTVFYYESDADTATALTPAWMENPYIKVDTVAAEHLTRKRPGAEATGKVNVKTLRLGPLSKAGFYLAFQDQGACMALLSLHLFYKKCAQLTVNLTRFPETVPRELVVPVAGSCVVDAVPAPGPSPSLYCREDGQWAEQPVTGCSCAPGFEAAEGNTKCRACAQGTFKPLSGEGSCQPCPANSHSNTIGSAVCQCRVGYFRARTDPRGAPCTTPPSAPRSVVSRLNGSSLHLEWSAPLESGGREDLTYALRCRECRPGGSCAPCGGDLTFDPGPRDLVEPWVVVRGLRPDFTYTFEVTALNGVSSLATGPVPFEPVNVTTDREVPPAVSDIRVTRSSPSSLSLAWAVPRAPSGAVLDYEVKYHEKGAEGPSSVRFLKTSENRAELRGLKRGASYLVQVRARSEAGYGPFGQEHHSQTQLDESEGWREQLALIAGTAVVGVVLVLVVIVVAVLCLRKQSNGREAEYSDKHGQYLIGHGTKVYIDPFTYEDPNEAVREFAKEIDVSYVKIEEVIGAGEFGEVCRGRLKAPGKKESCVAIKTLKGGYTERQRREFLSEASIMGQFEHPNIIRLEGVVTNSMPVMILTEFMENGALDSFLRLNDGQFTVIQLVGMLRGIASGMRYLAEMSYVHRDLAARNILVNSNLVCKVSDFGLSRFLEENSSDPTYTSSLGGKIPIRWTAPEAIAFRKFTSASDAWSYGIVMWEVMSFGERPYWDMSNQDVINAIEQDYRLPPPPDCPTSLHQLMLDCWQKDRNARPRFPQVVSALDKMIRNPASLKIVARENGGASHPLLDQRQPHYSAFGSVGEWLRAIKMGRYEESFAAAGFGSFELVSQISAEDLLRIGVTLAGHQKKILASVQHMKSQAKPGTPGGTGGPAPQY

[11] = target: T11, ErbB4 (Homo sapiens, UniProt Q15303); test: Kinase inhibition assay (33P transfer), ErbB4; settings: read-out: ErbB4-1
T11 construct: Kinases are expressed as either kinase domains or full length constructs; made in house

[12] = target: T12, Ret-1 (Homo sapiens, UniProt P07949); test: Kinase inhibition assay (33P transfer), Ret; settings: Table 6, Ret-1 kinase inhibition class
T12 construct: Kinases are expressed as either kinase domains or full length constructs; made in house

[13] = target: T13, FGFR1 (Homo sapiens, UniProt P11362); test: Kinase inhibition assay (33P transfer), FGFR1; settings: read-out: FGFR1-1
T13 construct: Kinases are expressed as either kinase domains or full length constructs; made in house

T2 sequence (P07948 whole entry, species assumed, the tested form may be a part): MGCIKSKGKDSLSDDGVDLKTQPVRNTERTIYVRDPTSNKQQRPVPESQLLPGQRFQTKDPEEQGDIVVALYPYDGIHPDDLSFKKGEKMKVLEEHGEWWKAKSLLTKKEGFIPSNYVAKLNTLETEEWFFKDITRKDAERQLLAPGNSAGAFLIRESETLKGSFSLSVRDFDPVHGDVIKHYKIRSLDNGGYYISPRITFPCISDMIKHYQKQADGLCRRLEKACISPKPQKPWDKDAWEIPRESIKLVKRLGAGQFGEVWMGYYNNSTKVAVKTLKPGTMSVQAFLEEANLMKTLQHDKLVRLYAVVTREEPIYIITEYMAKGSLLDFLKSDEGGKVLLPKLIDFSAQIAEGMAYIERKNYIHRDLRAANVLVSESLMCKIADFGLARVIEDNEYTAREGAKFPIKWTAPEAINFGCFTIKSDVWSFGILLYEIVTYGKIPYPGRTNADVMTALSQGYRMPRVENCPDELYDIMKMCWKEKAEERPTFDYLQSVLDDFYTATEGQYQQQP
T1 sequence (P06239 whole entry, species assumed, the tested form may be a part): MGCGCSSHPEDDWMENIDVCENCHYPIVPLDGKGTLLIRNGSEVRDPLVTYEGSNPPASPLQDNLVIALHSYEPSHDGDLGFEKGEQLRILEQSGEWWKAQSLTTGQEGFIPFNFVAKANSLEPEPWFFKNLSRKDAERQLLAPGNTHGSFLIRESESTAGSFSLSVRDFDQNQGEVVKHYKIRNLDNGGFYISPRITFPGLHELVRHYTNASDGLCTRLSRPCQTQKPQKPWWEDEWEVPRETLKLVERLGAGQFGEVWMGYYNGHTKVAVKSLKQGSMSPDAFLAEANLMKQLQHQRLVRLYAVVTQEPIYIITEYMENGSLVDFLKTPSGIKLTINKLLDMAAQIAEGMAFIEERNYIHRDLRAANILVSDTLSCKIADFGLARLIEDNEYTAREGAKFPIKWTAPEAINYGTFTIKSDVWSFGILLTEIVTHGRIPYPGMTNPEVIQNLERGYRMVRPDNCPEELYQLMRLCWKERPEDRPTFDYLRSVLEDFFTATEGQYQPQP
T7 sequence (P08581 25-1390): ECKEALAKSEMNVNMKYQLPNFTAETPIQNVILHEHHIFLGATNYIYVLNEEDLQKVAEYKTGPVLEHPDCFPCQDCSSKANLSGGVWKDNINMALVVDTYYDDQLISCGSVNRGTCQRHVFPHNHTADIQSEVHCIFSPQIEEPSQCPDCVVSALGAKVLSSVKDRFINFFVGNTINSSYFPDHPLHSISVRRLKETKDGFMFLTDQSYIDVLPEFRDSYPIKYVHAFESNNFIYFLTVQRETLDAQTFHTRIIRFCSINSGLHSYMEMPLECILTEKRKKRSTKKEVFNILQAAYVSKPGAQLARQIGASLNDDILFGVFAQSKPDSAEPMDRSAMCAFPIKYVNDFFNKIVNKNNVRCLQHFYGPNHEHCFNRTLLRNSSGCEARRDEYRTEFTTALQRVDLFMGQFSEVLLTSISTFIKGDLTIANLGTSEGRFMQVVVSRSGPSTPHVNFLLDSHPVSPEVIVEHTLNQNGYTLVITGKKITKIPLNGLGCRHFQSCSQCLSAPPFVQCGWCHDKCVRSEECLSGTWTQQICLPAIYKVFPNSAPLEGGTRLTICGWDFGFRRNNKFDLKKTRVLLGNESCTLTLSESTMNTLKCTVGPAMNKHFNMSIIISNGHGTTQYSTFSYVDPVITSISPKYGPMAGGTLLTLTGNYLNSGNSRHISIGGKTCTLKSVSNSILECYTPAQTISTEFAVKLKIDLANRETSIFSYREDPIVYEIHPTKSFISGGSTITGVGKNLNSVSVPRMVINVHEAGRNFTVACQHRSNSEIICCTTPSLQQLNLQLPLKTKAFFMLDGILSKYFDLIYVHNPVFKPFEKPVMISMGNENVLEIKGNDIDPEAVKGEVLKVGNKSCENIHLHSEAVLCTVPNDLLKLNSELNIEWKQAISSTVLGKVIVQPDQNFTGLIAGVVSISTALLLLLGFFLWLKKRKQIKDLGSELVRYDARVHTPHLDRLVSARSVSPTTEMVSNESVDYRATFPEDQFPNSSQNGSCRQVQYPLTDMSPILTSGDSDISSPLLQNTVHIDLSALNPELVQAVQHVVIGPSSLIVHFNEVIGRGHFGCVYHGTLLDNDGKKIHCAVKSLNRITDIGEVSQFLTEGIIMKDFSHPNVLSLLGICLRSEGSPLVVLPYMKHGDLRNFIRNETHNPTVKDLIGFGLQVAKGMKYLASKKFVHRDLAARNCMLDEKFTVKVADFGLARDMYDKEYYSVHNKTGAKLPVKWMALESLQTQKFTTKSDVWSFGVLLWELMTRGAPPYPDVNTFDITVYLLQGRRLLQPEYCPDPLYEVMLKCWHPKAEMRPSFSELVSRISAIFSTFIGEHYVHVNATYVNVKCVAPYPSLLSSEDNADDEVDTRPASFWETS
T6 sequence (Q02763 23-1124, species assumed): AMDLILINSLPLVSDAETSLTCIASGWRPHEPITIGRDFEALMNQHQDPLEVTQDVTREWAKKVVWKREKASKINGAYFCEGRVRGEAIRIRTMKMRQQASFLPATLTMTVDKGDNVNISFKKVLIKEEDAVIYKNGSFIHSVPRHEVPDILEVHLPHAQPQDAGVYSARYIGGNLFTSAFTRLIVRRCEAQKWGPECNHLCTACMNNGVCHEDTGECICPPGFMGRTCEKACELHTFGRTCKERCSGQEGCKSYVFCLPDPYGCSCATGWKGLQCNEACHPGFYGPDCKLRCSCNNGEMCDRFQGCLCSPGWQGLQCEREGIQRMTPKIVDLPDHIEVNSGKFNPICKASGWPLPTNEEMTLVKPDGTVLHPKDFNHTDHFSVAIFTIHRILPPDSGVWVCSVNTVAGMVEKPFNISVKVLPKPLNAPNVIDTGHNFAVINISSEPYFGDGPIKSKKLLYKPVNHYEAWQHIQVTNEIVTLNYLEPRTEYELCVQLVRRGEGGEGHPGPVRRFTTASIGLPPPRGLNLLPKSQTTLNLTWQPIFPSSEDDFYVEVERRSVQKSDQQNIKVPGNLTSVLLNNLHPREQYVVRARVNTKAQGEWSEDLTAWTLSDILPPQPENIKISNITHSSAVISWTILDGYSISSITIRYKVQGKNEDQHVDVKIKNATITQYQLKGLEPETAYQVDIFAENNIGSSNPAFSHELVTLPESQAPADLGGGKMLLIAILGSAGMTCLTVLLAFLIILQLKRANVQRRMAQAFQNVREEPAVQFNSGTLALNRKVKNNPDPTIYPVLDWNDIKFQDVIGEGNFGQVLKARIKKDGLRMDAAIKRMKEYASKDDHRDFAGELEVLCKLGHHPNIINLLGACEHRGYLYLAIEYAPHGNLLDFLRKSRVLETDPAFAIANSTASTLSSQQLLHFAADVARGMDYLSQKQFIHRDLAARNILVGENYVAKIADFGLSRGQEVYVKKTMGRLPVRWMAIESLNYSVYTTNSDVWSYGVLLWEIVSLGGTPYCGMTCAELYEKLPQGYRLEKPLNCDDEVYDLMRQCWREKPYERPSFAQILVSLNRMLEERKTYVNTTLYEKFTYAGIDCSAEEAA
T4 sequence (P00533 25-1210, species assumed): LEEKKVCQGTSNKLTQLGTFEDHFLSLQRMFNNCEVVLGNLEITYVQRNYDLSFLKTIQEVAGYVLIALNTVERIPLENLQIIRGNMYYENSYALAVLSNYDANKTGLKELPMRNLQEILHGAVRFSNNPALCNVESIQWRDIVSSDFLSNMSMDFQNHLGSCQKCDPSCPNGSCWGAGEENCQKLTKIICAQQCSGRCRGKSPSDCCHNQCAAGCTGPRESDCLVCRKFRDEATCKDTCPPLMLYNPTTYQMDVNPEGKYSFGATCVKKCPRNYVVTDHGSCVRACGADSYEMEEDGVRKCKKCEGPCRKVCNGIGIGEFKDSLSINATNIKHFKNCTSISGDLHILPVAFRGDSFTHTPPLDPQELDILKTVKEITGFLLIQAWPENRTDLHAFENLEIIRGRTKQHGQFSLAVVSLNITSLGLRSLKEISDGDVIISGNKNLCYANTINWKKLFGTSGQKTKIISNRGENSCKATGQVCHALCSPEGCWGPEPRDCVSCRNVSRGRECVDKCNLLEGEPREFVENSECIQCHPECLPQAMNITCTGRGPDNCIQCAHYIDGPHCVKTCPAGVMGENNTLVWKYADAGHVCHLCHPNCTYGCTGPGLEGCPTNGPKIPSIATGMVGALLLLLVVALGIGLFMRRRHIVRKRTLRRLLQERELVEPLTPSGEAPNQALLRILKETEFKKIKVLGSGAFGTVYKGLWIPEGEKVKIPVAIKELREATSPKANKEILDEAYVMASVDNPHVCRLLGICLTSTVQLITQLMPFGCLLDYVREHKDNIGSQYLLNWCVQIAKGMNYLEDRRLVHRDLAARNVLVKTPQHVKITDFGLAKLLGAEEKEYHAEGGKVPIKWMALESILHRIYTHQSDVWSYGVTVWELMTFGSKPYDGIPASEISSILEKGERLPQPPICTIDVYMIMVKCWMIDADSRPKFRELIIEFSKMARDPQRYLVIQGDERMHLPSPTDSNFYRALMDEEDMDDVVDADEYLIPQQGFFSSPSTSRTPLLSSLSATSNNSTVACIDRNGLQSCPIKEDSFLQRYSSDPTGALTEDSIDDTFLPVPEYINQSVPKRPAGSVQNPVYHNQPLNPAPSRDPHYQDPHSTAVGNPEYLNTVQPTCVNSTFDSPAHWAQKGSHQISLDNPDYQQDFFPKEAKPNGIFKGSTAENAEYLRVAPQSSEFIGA

SMILES	IC50 [1]	IC50 [2]	IC50 [3]	IC50 [4]	IC50 [5]	IC50 [6]	IC50 [7]	IC50 [8]	IC50 [9]	IC50 [10]	IC50 [11]	IC50 [12]	IC50 [13]
COc1cc(Nc2ncnc(Nc3ccc(Br)cc3F)n2)cc(OC)c1OC [Compound 41]	5.33 to 7.77 µM	< 0.888 µM	0.888 to 5.33 µM	< 0.888 µM	0.888 to 5.33 µM	7.77 to 9.99 µM	5.33 to 7.77 µM	> 9.99 µM	0.888 to 5.33 µM	0.888 to 5.33 µM	> 9.99 µM	< 0.888 µM	5.33 to 7.77 µM
COc1ccc(Nc2ncnc(Nc3ccc(C)c(O)c3)n2)cc1OC [Compound 119]	1.13 to 6.79 µM	1.13 to 6.79 µM	< 1.13 µM	< 1.13 µM	< 1.13 µM	> 12.7 µM	> 12.7 µM	> 12.7 µM	6.79 to 9.9 µM	> 12.7 µM	1.13 to 6.79 µM	< 1.13 µM	1.13 to 6.79 µM
COc1ccc(Nc2ncnc(Nc3ccc4[nH]ccc4c3)n2)cc1OC [Compound 115]	1.1 to 6.62 µM	6.62 to 9.66 µM	6.62 to 9.66 µM	< 1.1 µM	1.1 to 6.62 µM	> 12.4 µM	> 12.4 µM	1.1 to 6.62 µM	1.1 to 6.62 µM	9.66 to 12.4 µM	> 12.4 µM	1.1 to 6.62 µM	6.62 to 9.66 µM
COc1cc(Nc2ncnc(Nc3ccc(C)c(NS(C)(=O)=O)c3)n2)cc(OC)c1OC [Compound 305]	0.869 to 5.21 µM	< 0.869 µM	< 0.869 µM	0.869 to 5.21 µM	0.869 to 5.21 µM	> 9.77 µM	7.6 to 9.77 µM	> 9.77 µM	5.21 to 7.6 µM	0.869 to 5.21 µM	0.869 to 5.21 µM	< 0.869 µM	0.869 to 5.21 µM
COc1cc(Nc2ncnc(Nc3cc(C(C)(C)C)[nH]n3)n2)cc(OC)c1OC [Compound 313]	1 to 6.01 µM	< 1 µM	1 to 6.01 µM	1 to 6.01 µM	6.01 to 8.76 µM	> 11.3 µM	< 1 µM	> 11.3 µM	< 1 µM	1 to 6.01 µM	< 1 µM	1 to 6.01 µM	1 to 6.01 µM
C#Cc1cccc(Nc2ncnc(Nc3ccc(OC)c(OC)c3)n2)c1 [Compound 116]	10.1 to 13 µM	> 13 µM	> 13 µM	< 1.15 µM	> 13 µM	> 13 µM	> 13 µM	> 13 µM	1.15 to 6.91 µM	> 13 µM	> 13 µM	> 13 µM	> 13 µM
